Here are results for one substance from PMC8962522, “Direct interaction of TrkA/CD44v3 is essential for NGF-promoted aggressiveness of breast cancer cells” (Journal of Experimental & Clinical Cancer Research : CR, 2022).

The subject of test [1] is CD44v6 in MDA-MB-231 cells. Nature of the test: Flow cytometry, plasma membrane CD44v6. The class given is cell-based. Particulars: MDA-MB-231, flow cytometry. An excerpt:
(§1) The CD44v3- and CD44v6-containing isoforms expressing respectively exon 8 and 11(Fig. 1A) can interact with growth factor receptors. Using COS-7 cells with low CD44 and TrkA expression (Supplementary Fig. 1A-D), we differentially expressed TrkA and CD44s or a CD44 variant, either CD44v3 or CD44v6 (Fig. 1B, supplementary Fig. 2). […] Additionally, we evaluated the expression of TrkA and CD44v3 at the membrane level or in cells by immunofluorescence in MDA-MB-231 cells.
(§2) Supplementary file 13046_2022_2314_MOESM3_ESM.pdf: Additional file 3: Supplementary Figure 1. Validation of the ectopic expression of CD44 and/or TrkA in COS-7 cells. The expression of all CD44 isoforms (A), CD44 variant 3 (B), CD44 variant 6 (C) and TrkA ([…]; D) was evaluated by RT–qPCR (normalized using PUM-1). No expression of CD44, CD44 variants [3 or 6] or TrkA was detected in COS-7 cells (A-D) compared with that in cells transfected with the expression plasmid carrying each protein. […] Quantification of the PLA results was performed using ImageJ software (30 randomly chosen fields per condition of three different experiments). […] CD44v3 and CD44v6 levels at the plasma membrane were assessed by flow cytometry (A-D). The plasma membrane and total TrkA and CD44v3 levels were also quantified by confocal microscopy (E-H). […] The CD44v3/NGF interaction was evaluated using microscale thermophoresis (MST). […]

Another test has as its system TrkA in MDA-MB-231 cells. Nature of the test: Immunofluorescence, membrane TrkA. The class given is cell-based. As to conditions: MDA-MB-231, immunofluorescence/confocal, NGF; "same trend" = as CD44v3: increased until 15 min and then decreased.
Excerpt: as §1, §2

“NGF: recombinant human β-NGF (Alomone Labs, Israel)”: in test [1] (CD44v6-APC, histogram with No stim., NGF (5 min), NGF (30 min)), the “increase of plasma membrane CD44v6” value is recorded as 6%. For the same substance, the “plasma membrane level of CD44v6 (in words)” value in test [1] (NGF stimulation) was “increased the plasma membrane level of CD44v3 but not CD44v6”. Moreover, the “level of TrkA at the membrane (in words)” value with TrkA in MDA-MB-231 cells was “the membrane level of TrkA followed the same trend”.
